Results published in ChEMBL document CHEMBL3039007, “Structure-based identification of OATP1B1/3 inhibitors” (Mol Pharmacol, 2013).

Columns and labels:
[1] = biological target: T1, Solute carrier organic anion transporter family member 1B1 (Homo sapiens, UniProt Q9Y6L6); conditions: chinese hamster, cho, 10 µM
T1 sequence (Q9Y6L6 whole entry): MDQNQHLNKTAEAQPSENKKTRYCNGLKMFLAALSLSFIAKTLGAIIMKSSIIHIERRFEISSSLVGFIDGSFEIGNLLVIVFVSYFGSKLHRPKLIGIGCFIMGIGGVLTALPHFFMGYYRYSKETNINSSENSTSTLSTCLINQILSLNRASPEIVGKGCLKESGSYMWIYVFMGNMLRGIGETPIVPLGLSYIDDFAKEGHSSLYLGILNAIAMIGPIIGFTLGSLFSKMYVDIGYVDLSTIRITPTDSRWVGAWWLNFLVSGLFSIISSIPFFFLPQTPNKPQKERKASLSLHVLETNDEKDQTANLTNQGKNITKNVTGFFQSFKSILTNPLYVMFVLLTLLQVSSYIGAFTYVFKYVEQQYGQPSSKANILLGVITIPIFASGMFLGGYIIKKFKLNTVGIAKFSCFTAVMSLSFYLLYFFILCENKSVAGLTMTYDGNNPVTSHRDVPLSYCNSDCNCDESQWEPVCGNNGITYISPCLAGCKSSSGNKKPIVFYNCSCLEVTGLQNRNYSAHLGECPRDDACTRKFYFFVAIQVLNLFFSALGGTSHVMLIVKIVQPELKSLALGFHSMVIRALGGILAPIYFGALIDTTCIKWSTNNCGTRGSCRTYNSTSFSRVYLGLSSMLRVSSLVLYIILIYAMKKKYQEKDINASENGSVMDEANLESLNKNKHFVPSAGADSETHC

[2] = biological target: T2, Solute carrier organic anion transporter family member 1B3 (Homo sapiens, UniProt Q9NPD5); conditions: chinese hamster, cho, 10 µM
T2 sequence (Q9NPD5 whole entry): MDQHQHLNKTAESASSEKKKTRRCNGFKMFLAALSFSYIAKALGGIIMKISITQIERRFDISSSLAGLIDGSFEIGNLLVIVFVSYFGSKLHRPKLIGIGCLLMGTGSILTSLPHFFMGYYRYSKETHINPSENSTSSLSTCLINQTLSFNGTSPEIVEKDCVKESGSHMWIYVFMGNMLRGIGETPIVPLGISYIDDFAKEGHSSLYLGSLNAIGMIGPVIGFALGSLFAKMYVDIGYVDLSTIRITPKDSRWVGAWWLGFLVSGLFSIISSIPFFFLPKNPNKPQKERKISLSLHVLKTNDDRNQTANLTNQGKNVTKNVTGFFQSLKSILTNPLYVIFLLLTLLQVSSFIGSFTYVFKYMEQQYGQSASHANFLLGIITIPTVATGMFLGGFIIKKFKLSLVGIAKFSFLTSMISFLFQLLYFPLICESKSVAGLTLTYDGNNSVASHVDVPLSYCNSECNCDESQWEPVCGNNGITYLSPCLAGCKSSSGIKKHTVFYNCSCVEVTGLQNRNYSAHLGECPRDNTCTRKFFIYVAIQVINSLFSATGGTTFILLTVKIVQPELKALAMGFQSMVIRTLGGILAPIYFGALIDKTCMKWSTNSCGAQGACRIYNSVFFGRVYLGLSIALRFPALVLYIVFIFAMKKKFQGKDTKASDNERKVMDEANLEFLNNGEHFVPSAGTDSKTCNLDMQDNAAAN

Structure (SMILES)	residual activity [1]	residual activity [2]
COc1ccc2c(c1)[nH]c1c(C)nccc12 [HARMINE]	105.3%	101.7%
Cc1nccc2c1[nH]c1cc(O)ccc12.Cl [HARMOL HYDROCHLORIDE]	91.2%	124.7%
CC(=O)O[C@H]1CC[C@@]2(C)[C@@H](CC[C@@H]3[C@@H]2CC(=O)[C@]2(C)[C@@H]4[C@H](C[C@@H]32)O[C@]2(CC[C@@H](C)CO2)[C@H]4C)C1 [HECOGENIN ACETATE]	103.5%	102%
C[C@@H]1CC[C@@]2(OC1)O[C@H]1C[C@H]3[C@@H]4CC[C@@]5(C)C[C@@H](O)CC[C@]5(C)[C@H]4CC(=O)[C@]3(C)[C@H]1[C@@H]2C [HECOGENIN]	41.82%	105.1%
C=C1C(=O)O[C@@H]2C[C@@]3(C)CCC[C@H](C)C3=C[C@H]12 [HELENINE]	116%	115.2%
O=C1C=C2CC3(O)COc4c(ccc(O)c4O)C3=C2C=C1O (configuration not stated) [HEMATEIN]	65.79%	73.22%
Oc1cc2c(cc1O)[C@@H]1c3ccc(O)c(O)c3OC[C@]1(O)C2 [HEMATOXYLIN]	88.87%	91.69%
ClC1=C(Cl)C2(Cl)C3C(Cl)C=CC3C1(Cl)C2(Cl)Cl (configuration not stated) [HEPTACHLOR]	98.77%	131.9%
CC(N)CCCC(C)(C)O.Cl (configuration not stated) [HEPTAMINOL HYDROCHLORIDE]	95.56%	104.5%
COc1ccc2ccc(=O)oc2c1 [HERNIARIN]	148.3%	104.5%
COc1ccc([C@@H]2CC(=O)c3c(O)cc(O)cc3O2)cc1O [HESPERETIN]	98.42%	113.3%
COc1ccc([C@@H]2CC(=O)c3c(O)cc(O[C@@H]4O[C@H](CO[C@@H]5O[C@@H](C)[C@H](O)[C@@H](O)[C@H]5O)[C@@H](O)[C@H](O)[C@H]4O)cc3O2)cc1O [HESPERIDIN]	106.1%	110.2%
CC1(C)S[C@@H]2[C@H](N3C(=O)[C@@H](c4ccccc4)NC3(C)C)C(=O)N2[C@H]1C(=O)[O-].[K+] [HETACILLIN POTASSIUM]	81.9%	89.09%
Oc1c(Cl)cc(Cl)c(Cl)c1Cc1c(O)c(Cl)cc(Cl)c1Cl [HEXACHLOROPHENE]	7.55%	3.11%
C[N+](C)(C)CCCCCC[N+](C)(C)C.[Br-].[Br-] [HEXAMETHONIUM BROMIDE]	76.07%	77.59%
CC[C@H](c1ccc(O)cc1)[C@@H](CC)c1ccc(O)cc1 [HEXESTROL]	46.62%	43.21%
CCCCC(CC)CN1CN(CC(CC)CCCC)CC(C)(N)C1 (configuration not stated) [HEXETIDINE]	75.93%	102.1%
CCCCCCc1ccc(O)cc1O [HEXYLRESORCINOL]	115.5%	84.11%
C[N+]1(C)[C@@H]2CC[C@H]1C[C@@H](OC(=O)C(O)c1ccccc1)C2.[Br-] (some centres not stated) [HOMATROPINE METHYLBROMIDE]	77.55%	73.94%
CC[n+]1c(-c2ccccc2)c2cc(N)ccc2c2ccc(N)cc21.[Br-] [HOMIDIUM BROMIDE]	98.94%	100.7%
COC(=O)C[C@H]1C(C)(C)C(OC(C)=O)[C@]2(O)C=C3C4CC(=O)O[C@@H](c5ccoc5)[C@]4(C)CCC3[C@@]1(C)C2=O (some centres not stated) [HUMILIN A]	22.34%	34.35%
C/C=C1\[C@H]2C=C(C)C[C@]1(N)c1ccc(=O)[nH]c1C2 [HUPERZINE A]	93.86%	101.3%
CCN(CC)CCNc1ccc(CO)c2sc3ccccc3c(=O)c12 [HYCANTHONE]	79.76%	100.5%

Structure (SMILES)	residual activity [1]	residual activity [2]
Cl.NNc1nncc2ccccc12 [HYDRALAZINE HYDROCHLORIDE]	87.74%	115.1%
CN1CCc2cc3c(cc2C1O)OCO3.Cl (configuration not stated) [HYDRASTININE HYDROCHLORIDE]	62.32%	73.39%
NS(=O)(=O)c1cc2c(cc1Cl)NCNS2(=O)=O [HYDROCHLOROTHIAZIDE]	68.94%	82.24%
CC(=O)OCC(=O)[C@@]1(O)CC[C@H]2[C@@H]3CCC4=CC(=O)CC[C@]4(C)[C@H]3[C@@H](O)C[C@@]21C [HYDROCORTISONE ACETATE]	93.94%	91.1%
CCCC(=O)O[C@]1(C(=O)CO)CC[C@H]2[C@@H]3CCC4=CC(=O)CC[C@]4(C)[C@H]3[C@@H](O)C[C@@]21C [HYDROCORTISONE BUTYRATE]	100.3%	98.06%
C[C@]12CCC(=O)C=C1CC[C@@H]1[C@@H]2[C@@H](O)C[C@@]2(C)[C@H]1CC[C@]2(O)C(=O)COC(=O)CCC(=O)O [HYDROCORTISONE HEMISUCCINATE ANHYDROUS]	93.98%	101.8%
C[C@]12CCC(=O)C=C1CC[C@@H]1[C@@H]2[C@@H](O)C[C@@]2(C)[C@H]1CC[C@]2(O)C(=O)CO [HYDROCORTISONE]	98.24%	113.8%
Br.COc1c2c(cc3c1OCO3)CCN(C)C2 [HYDROCOTARNINE HYDROBROMIDE]	99.81%	89.75%
COc1c2c(cc3c1OCO3)CCN(C)C2 [HYDROCOTARNINE]	77.76%	98.91%
NS(=O)(=O)c1cc2c(cc1C(F)(F)F)NCNS2(=O)=O [HYDROFLUMETHIAZIDE]	82.22%	85.97%
CC(C)/C(O)=C1/C(=O)O[C@@H](c2ccoc2)[C@]2(C)C(O)[C@@H](O)[C@@]34OC5(C)OC67CC(C)(C(O)[C@]6(O)[C@@H](O)[C@]3(O5)C12)[C@H](CC(=O)O)[C@]74C (some centres not stated) [HYDROLYSIS PRODUCT OF BUSSEIN]	52.29%	78.08%
CC[C@H]1CN2CC[C@H]1C[C@@H]2[C@@H](O)c1ccnc2ccc(OC)cc12 [HYDROQUINIDINE]	77.48%	96.11%
Oc1ccc(O)cc1 [HYDROQUINONE]	112.9%	93.82%
Br.CC(N)Cc1ccc(O)cc1 (configuration not stated) [HYDROXYAMPHETAMINE HYDROBROMIDE]	85.8%	84.1%
CCN(CCO)CCCC(C)Nc1ccnc2cc(Cl)ccc12.O=S(=O)(O)O (configuration not stated) [HYDROXYCHLOROQUINE SULFATE]	90.44%	90.84%
CCCCCC(=O)O[C@]1(C(C)=O)CC[C@H]2[C@@H]3CCC4=CC(=O)CC[C@]4(C)[C@H]3CC[C@@]21C [HYDROXYPROGESTERONE CAPROATE]	40.59%	55.76%
Cc1cccc(C(=O)O)c1O [HYDROXYTOLUIC ACID]	125.2%	110.2%
COc1ccc2c(C)cc(=O)oc2c1 [HYMECROMONE METHYL ETHER]	109.2%	127.1%
O=c1[nH]cnc2nc[nH]c12 [HYPOXANTHINE]	92.05%	92.8%
CC(C)Cc1ccc(C(C)C(=O)O)cc1 (configuration not stated) [IBUPROFEN]	111.7%	98.25%
COc1ccc(-c2oc3c(CC=C(C)C)c(O[C@@H]4O[C@H](CO)[C@@H](O)[C@H](O)[C@H]4O)cc(O)c3c(=O)c2O[C@@H]2O[C@@H](C)[C@H](O)[C@@H](O)[C@H]2O)cc1 [ICARIIN]	212.5%	126.8%
COc1cc2c(cc1-c1coc3c4c(c(OC)cc3c1=O)OC(C)(C)C=C4)OCO2 [ICHTHYNONE]	105.6%	118.8%
O=[N+]([O-])NC1=NCCN1Cc1ccc(Cl)nc1 [IMIDACLOPRID]	73.94%	90.03%
